According to patent US10131652B2, “Pyrimidinyloxy benzene derivatives as herbicides” (E. I. DU PONT DE NEMOURS AND COMPANY, priority 2014, dated 2018):
Like-named read-outs stand apart in the source and are kept apart here.

Key:
Assay in all cases: Test B pre-/postemergence plant response
Type in all cases: in vivo
[1] = test system: wheat (Triticum aestivum); settings: Triticum aestivum, 240 h, read-out: Plant response rating, Wheat; for plant injury at 125 g/ha: 125 g ai/ha; for plant injury at 500 g/ha: 500 g ai/ha; for plant injury at 1000 g/ha: 1000 g ai/ha
Summary of the method: (§1)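 Visual injury scores on a 0–100 scale (100 = complete control) relative to untreated plants, taken about 10 days post-treatment in greenhouse. Treatments were a directed preemergence soil spray and a postemergence spray at one- to two-leaf stage, using surfactant-containing solvent formulation.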

corn (Zea mays) = settings: Zea mays, 240 h; for Corn plant response rating (crop injury, 0 = no effect, 100 = complete kill) at 125 g/ha: 125 g ai/ha; for Corn plant response rating (crop injury, 0 = no effect, 100 = complete kill) at 500 g/ha: 500 g ai/ha; for Corn plant response rating (crop injury, 0 = no effect, 100 = complete kill) at 1000 g/ha: 1000 g ai/ha
Summary of the method: as §1

[2] = test system: barnyardgrass (Echinochloa crus-galli); settings: Echinochloa crus-galli, 240 h, read-out: Plant response rating, Barnyardgrass; for pest or weed control at 125 g/ha: 125 g ai/ha; for pest or weed control at 500 g/ha: 500 g ai/ha; for pest or weed control at 1000 g/ha: 1000 g ai/ha
Summary of the method: as §1

[3] = test system: pigweed (Amaranthus retroflexus); settings: Amaranthus retroflexus, 240 h, read-out: Plant response rating, Pigweed; for pest or weed control at 125 g/ha: 125 g ai/ha; for pest or weed control at 500 g/ha: 500 g ai/ha; for pest or weed control at 1000 g/ha: 1000 g ai/ha
Summary of the method: as §1

[4] = test system: giant foxtail (Setaria faberii); settings: Setaria faberi, 240 h, read-out: Plant response rating, Foxtail, Giant; for pest or weed control at 125 g/ha: 125 g ai/ha; for pest or weed control at 500 g/ha: 500 g ai/ha; for pest or weed control at 1000 g/ha: 1000 g ai/ha
Summary of the method: as §1

[5] = post-emergence, postemergence, 0 to 100 scale, 0 no effect, 100 complete control
[6] = post-emergence, Postemergence, 0 to 100 scale (0 no effect, 100 complete control)
[7] = pre-emergence, Preemergence, 0 to 100 scale where 0 is no effect and 100 is complete control
[8] = pre-emergence, Preemergence, 0 to 100 scale (0 no effect, 100 complete control)

SMILES | plant injury at 125 g/ha [1, 5] [%] | plant injury at 500 g/ha [1, 6] [%] | plant injury at 125 g/ha [1, 7] [%] | plant injury at 500 g/ha [1, 8] [%] | Corn plant response rating (crop injury, 0 = no effect, 100 = complete kill) at 125 g/ha (corn (Zea mays); [5]) [%] | Corn plant response rating (crop injury, 0 = no effect, 100 = complete kill) at 500 g/ha (corn (Zea mays); [6]) [%] | Corn plant response rating (crop injury, 0 = no effect, 100 = complete kill) at 125 g/ha (corn (Zea mays); [7]) [%] | Corn plant response rating (crop injury, 0 = no effect, 100 = complete kill) at 500 g/ha (corn (Zea mays); [8]) [%] | pest or weed control at 125 g/ha [2, 5] [%] | pest or weed control at 500 g/ha [2, 6] [%] | pest or weed control at 125 g/ha [2, 7] [%] | pest or weed control at 500 g/ha [2, 8] [%] | pest or weed control at 125 g/ha [3, 5] [%] | pest or weed control at 500 g/ha [3, 6] [%] | pest or weed control at 125 g/ha [3, 7] [%] | pest or weed control at 500 g/ha [3, 8] [%] | pest or weed control at 125 g/ha [4, 5] [%] | pest or weed control at 500 g/ha [4, 6] [%] | pest or weed control at 125 g/ha [4, 7] [%] | pest or weed control at 500 g/ha [4, 8] [%] | other results
FC(F)(F)c1nccc(-c2ccccc2Oc2ncc(Br)cn2)n1 [Compound 21, 4-[2-[(5-bromo-2-pyrimidinyl)oxy]phenyl]-2-(trifluoromethyl)pyrimidine] | 0 | 0 | 0 | 0 | 0 | 40 | 0 | 0 | 0 | 60 | 0 | 50 | 80 | 100 | 30 | 90 | 0 | 60 | 70 | 100 | 
Cc1ccc(Oc2ncc(Cl)cn2)c(-c2ccc(C(F)(F)F)nc2)c1 [Compound 22, 5-chloro-2-[4-methyl-2-[6-(trifluoromethyl)-3-pyridinyl]phenoxy]pyrimidine] | 0 | 0 | 0 | 0 | 0 | 0 | 0 | 0 | 0 | 0 | 0 | 0 | 0 | 0 | 0 | 0 | 0 | 0 | 0 | 0 | 
Clc1ccc(-c2c(Cl)cccc2Oc2ncc(Cl)cn2)nc1 [Compound 23, 5-chloro-2-[3-chloro-2-(5-chloro-2-pyridinyl)phenoxy]pyrimidine] | 0 | 0 | 0 | 0 | 10 | 20 | 0 | 0 | 0 | 50 | 0 | 30 | 70 | 100 | 50 | 90 | 10 | 70 | 20 | 70 | plant injury at 1000 g/ha [1, 6]: 0%; plant injury at 1000 g/ha [1, 8]: 0%; Corn plant response rating (crop injury, 0 = no effect, 100 = complete kill) at 1000 g/ha (corn (Zea mays); [6]): 20%; Corn plant response rating (crop injury, 0 = no effect, 100 = complete kill) at 1000 g/ha (corn (Zea mays); [8]): 0%; pest or weed control at 1000 g/ha [2, 6]: 50%; pest or weed control at 1000 g/ha [2, 8]: 40%; pest or weed control at 1000 g/ha [3, 6]: 100%; pest or weed control at 1000 g/ha [3, 8]: 100%; pest or weed control at 1000 g/ha [4, 6]: 70%; pest or weed control at 1000 g/ha [4, 8]: 100%
Cc1ccc(Oc2ncc(Cl)cn2)c(-c2ccnc(C(F)(F)F)c2)c1 [Compound 24, 5-chloro-2-[4-methyl-2-[2-(trifluoromethyl)-4-pyridinyl]phenoxy]pyrimidine] | 0 | 0 | 0 | 0 | 0 | 40 | 0 | 40 | 0 | 60 | 10 | 80 | 20 | 40 | 0 | 40 | 30 | 90 | 20 | 90 | 
FC(F)(F)c1ccnc(-c2ccccc2Oc2ncc(Cl)cn2)c1 [Compound 25, 5-chloro-2-[2-[4-(trifluoromethyl)-2-pyridinyl]phenoxy]pyrimidine] | 0 | 10 | 0 |  | 10 | 30 | 0 |  | 0 | 30 | 10 |  | 30 | 90 | 60 |  | 0 | 60 | 40 |  | plant injury at 500 g/ha [1, 7]: 0%; Corn plant response rating (crop injury, 0 = no effect, 100 = complete kill) at 500 g/ha (corn (Zea mays); [7]): 0%; pest or weed control at 500 g/ha [2, 7]: 70%; pest or weed control at 500 g/ha [3, 7]: 100%; pest or weed control at 500 g/ha [4, 7]: 90%
